Source: patent US20240307365A1, “Pharmaceutical Composition for Preventing or Treating Systemic Sclerosis” (Daewoong Pharmaceutical Co., Ltd., priority 2021, published 2024)
“And” between values parts separate entries of the source, which are not always exact repeats. Equal values may be shown once.

Assays:
[1] = test system: 3D skin organoid prepared using iPSC-derived fibroblasts from patients with systemic dermatosis; test: Skin hardening alleviation in 3D skin organoid model (thickness by H&E staining); type: cell-based; settings: 1 μM in DMSO solution, control DMSO only (FIG. 1)
Procedure: A 3D skin organoid was prepared using iPSC-derived fibroblasts from patients with systemic dermatosis according to the method described in the literature (Lancet. 2009 Nov. 21;374(9703):1745-53). When 1 μM of active ingredient was treated with DMSO solution, it was confirmed through H&E immunochemical staining that the thickness of the 3D skin organoid was reduced (FIG. 1). The control group was treated with only DMSO.

[2] = test system: mouse model of systemic scleroderma skin organoid transplantation; test: Skin hardening alleviation in 3D skin organoid transplantation mouse model (skin thickness, fibrosis factors by immunochemical staining); type: in vivo, SCID mice; settings: daily for 2 weeks
Excerpt: The previously constructed 3D skin organoid derived from the systemic scleroderma patient iPSC was transplanted into SCID mice to construct a mouse model of systemic scleroderma. The mouse skin tissue was cut into 1×2 cm, and then 3D skin organoid skin tissue was sutured to the mouse skin. For a skin transplantation method, it was transplanted to mice or the like using a tie-over dressing method used clinically. After placing a gauze on the suture site, it was tied with a suture and dressed with a band.
The active ingredient was subcutaneously administered at a dose of 3 mg/kg and 10 mg/kg daily for 2 weeks to a mouse model of systemic scleroderma skin organoid transplantation. For the negative control group (NC), a physiological saline was administered to a normal skin tissue, and for the positive control group (SSc), a physiological saline was administered to a systemic scleroderma skin organoid transplanted skin tissue. The skin thickness, which is the primary evaluation index of systemic scleroderma, was measured through immunochemical staining, and the results are shown in FIG. 2.
To confirm whether the fibrosis factor is reduced in systemic scleroderma skin tissue by the active ingredient, immunochemical staining was performed and the results are shown in FIG. 3.

[3] = test system: systemic sclerosis-associated interstitial lung disease (SSc-ILD) mouse model administered with BLM; test: SSc-ILD bleomycin osmotic pump mouse model: body weight (%); type: in vivo, C57BL/6 mice; settings: for Body weight (%) change: individual animals 1-9
Excerpt: (§1) Seven-week-old C57BL/6 mice were obtained and acclimatized indoors for 5 days or more. For the systemic sclerosis-related interstitial lung disease model, an osmotic pump injection model was designed. For that reason, if it is not modeling using an osmotic pump, it is a model in which BLM should be injected subcutaneously into the back of the test animal every day for 4 weeks, and this is because these tests can cause very extreme pain at the site of administration.
(§2) The incision site was sutured, an osmotic pump was inserted, bleomycin was administered for 1 week, and then the osmotic pump was removed on the 10th day. It was confirmed that systemic sclerosis-associated interstitial lung disease was induced in a mouse model administered with BLM for 1 week, and specific experimental groups are shown in Table 1 below.

[4] = test system: systemic sclerosis-associated interstitial lung disease (SSc-ILD) mouse model administered with BLM; test: SSc-ILD bleomycin osmotic pump mouse model: lung weight; type: in vivo, C57BL/6 mice; set-up: Lung weight: unit not given here; settings: for Lung weight: individual animals 1-9, unit not given
Excerpt: as §1, §2

[5] = test system: systemic sclerosis-associated interstitial lung disease (SSc-ILD) mouse model administered with BLM; test: SSc-ILD bleomycin osmotic pump mouse model: lung function evaluation (SpO2); type: in vivo, C57BL/6 mice
Excerpt: as §1, §2
This lung function evaluation is an experiment to show the therapeutic effect of this active substance in patients with systemic sclerosis-associated interstitial lung diseases, and is the most direct and important evaluation index that has the greatest influence on the symptoms and quality of life of patients with systemic sclerosis-associated interstitial lung diseases, unlike the general pulmonary fibrosis ameliorating effect. This is an experiment that can most directly show the effect of improving lung function in an animal model of systemic sclerosis-associated interstitial lung disease by measuring the oxygen concentration in the body.
On the 21st day, it was measured with a SpO2 measuring device (Berry, Veterinary Pulse Oximeter) via the abdominal side of the mouse, and the results are shown in Table 5 and FIG. 3.

[6] = test system: systemic sclerosis-associated interstitial lung disease (SSc-ILD) mouse model administered with BLM; test: SSc-ILD bleomycin osmotic pump mouse model: skin thickness (H&E, MT stain); type: in vivo, C57BL/6 mice; settings: day 28; for Skin thickness: individual animals 1-9
Excerpt: as §1, §2
On the day 28, skin tissues were extracted from mice and subjected to H&E and Mansson's Trichrome (MT stain). The skin thickness of 10 sites was measured randomly through the image of the photograph in which stain progressed (progressed at a minimum interval of 200˜300 um). The entire area of the photograph was measured as evenly as possible, and the areas where the stain tissue was damaged were excluded from the measurement.

[7] = test system: systemic sclerosis-associated interstitial lung disease (SSc-ILD) mouse model administered with BLM; test: SSc-ILD bleomycin osmotic pump mouse model: collagen content (hydroxyproline) in skin tissue; type: in vivo, C57BL/6 mice; settings: for hydroxyproline value, ratio compared to a normal group: skin tissue, individual animals 1-9
Excerpt: as §1, §2
An attempt was made to measuring the amount of hydroxyproline in the mouse and thus indirectly measure the collagen content. Analysis was performed using INSOLUBLE Collagen Assay (Biocolor, S2000), and the details are as follows.
First, 10 mg of frozen skin tissue was pulverized with 100 ul of fragmentation reagent. 100 ul of 37% HCl was added and incubated at 65° C. for 3 hours. The contents of the tube were shaken at 30 minute intervals to aid tissue disintegration. Centrifugation was performed at 12,000 rpm for 10 minutes. After centrifugation, it was transferred to a 1.5 ml tube. 50 ul was taken from a sample between 10 and 100 ul, distilled water was added, and the sample was prepared so as to match with 100 ul.
1 ml of dye was added to 100 ul of the prepared sample, and mixed for 30 minutes. The mixture was centrifuged at 12,000 rpm for 10 minutes, and then transferred to a new tube. The dye was removed with 750 ul of ice-cold acid-salt wash reagent. After centrifugation at 12,000 rpm for 10 minutes, it was transferred to a new tube. The tube was mixed with the collagen-binding dye using a vortex mixer, and gollagen binding dye was dissolved within 10 minutes to complete the measurement preparation (measurement should be completed within 2˜3 hours). The tube cap was closed until it was ready to measure absorbance.
200 ul of each sample was transferred to an individual well of a 96 micro-well plate, and the absorbance was measured at 560 nm.

[8] = 3 and 10 mg/kg subcutaneous, immunochemical staining, *p<0.05, ***p<0.001 (FIG. 3)

Q: Which results are given for O[C@H]1CCCN[C@@H]1CCCn1cnc2c(Cl)c(Cl)ccc21 [Active ingredient]?
A: thickness of the 3D skin organoid [1]: reduced; thickness of the skin tissue ([2]; 3 mg/kg and 10 mg/kg subcutaneous, ***p<0.001 (FIG. 2)): significantly reduced; fibrotic factor Collagen I in skin tissue [2, 8]: significantly reduced; fibrotic factor Collagen III in skin tissue [2, 8]: significantly reduced; fibrotic factor aSMA in skin tissue [2, 8]: significantly reduced; Body weight (%) change ([3]; 3 mg/kg oral, 28 days): −2.45% and −2.14% and 1.34% and −0.33% and −1.93% and 8.65% and 3.02% and −0.36% and 1.07%; Body weight (%) change ([3]; 10 mg/kg oral, 28 days): 4.62% and 2.54% and 1.96% and −4.1% and −2.48% and 0.48% and 0.14% and 4.88% and 4.78%; Body weight (%) change ([3]; 30 mg/kg oral, 28 days): 12.09% and 7.78% and 2.13% and 2.34% and 1.45% and 9.52% and 5.35% and −2.86% and 7.57%; body weight compared to the vehicle ([3]; 30 mg/kg oral, 28 days, p<0.01): significantly increased; changes in body weight, significance ([3]; from 3 mg/kg oral, 28 days): significant results; Lung weight ([4]; 3 mg/kg oral): 1.01 and 1.14 (2×) and 1.08 (2×) and 0.98 (2×) and 1.15 and 0.92; Lung weight ([4]; 10 mg/kg oral): 0.98 and 1.22 and 1.14 and 1.12 and 0.95 and 1.16 and 0.99 and 0.93 and 1.08; change in lung weight corrected by body weight, significance ([4]; 30 mg/kg oral): significance increased to p<0.01; Lung weight ([4]; 30 mg/kg oral): 1.10 and 0.99 and 0.90 and 0.98 (2×) and 1.03 and 0.94 and 1.09 and 0.97; change in lung weight corrected by body weight, significance ([4]; from 10 mg/kg oral): showed a significance; change in lung weight, significance ([4]; only at 30 mg/kg oral): significant tendency; oxygen saturation recovery rate versus nintedanib (60 mg/kg) group ([5]; 30 mg/kg oral, day 21): comparable to that of nintedanib; SpO2 (oxygen saturation) compared with the vehicle ([5]; 30 mg/kg oral, day 21, p<0.001): higher oxygen saturation; SpO2 (oxygen saturation), significance ([5]; from 10 mg/kg oral, day 21 (FIG. 7)): significant results; density of collagen in the skin (MT stain) ([6]; 3 mg/kg oral): tendency to decrease; skin thickness, significance ([6]; 3 mg/kg oral): did not significantly decrease; Skin thickness ([6]; 3 mg/kg oral): 809.254 μm and 771.562 μm and 778.660 μm and 688.725 μm and 759.037 μm and 677.319 μm and 744.986 μm and 904.141 μm and 641.841 μm; skin thickness improvement effect compared with 60 mg/kg of nintedanib ([6]; 10 mg/kg oral): superior; Skin thickness ([6]; 10 mg/kg oral): 526.170 μm and 521.027 μm and 425.415 μm and 456.862 μm and 672.616 μm and 593.826 μm and 601.558 μm and 809.106 μm and 708.308 μm; skin thickness, significance ([6]; 30 mg/kg oral, P<0.0001 or less): very significant results; Skin thickness ([6]; 30 mg/kg oral): 475.515 μm and 412.271 μm and 525.311 μm and 593.963 μm and 526.388 μm and 443.336 μm and 601.558 μm and 558.530 μm and 479.961 μm; collagen density in the skin (MT stain) ([6]; active ingredient administered as a whole): decreased; skin thickness, significance ([6]; from 10 mg/kg oral): significant results; hydroxyproline value, ratio compared to a normal group ([7]; 3 mg/kg oral): 1.51 (2×) and 1.96 and 1.66 and 1.94 and 1.85 and 1.74 and 1.57 and 2.01; hydroxyproline value, ratio compared to a normal group ([7]; 10 mg/kg oral): 2.27 and 2.26 (2×) and 1.70 and 1.93 and 1.57 and 2.16 and 1.82 and 2.10; amount of hydroxyproline in the skin, significance ([7]; 30 mg/kg oral, P<0.001 or less): very significant result; hydroxyproline value, ratio compared to a normal group ([7]; 30 mg/kg oral): 1.70 and 1.48 and 1.81 and 2.04 and 2.09 (2×) and 1.75 and 1.77 and 1.28; amount of hydroxyproline in the skin, significance ([7]; from 10 mg/kg oral): significant results

Q: COC(=O)c1ccc2c(c1)NC(=O)/C2=C(\Nc1ccc(N(C)C(=O)CN2CCN(C)CC2)cc1)c1ccccc1 [NIN, Nintedanib, reference compound] was tested. Which “Body weight (%) change” value ([3]; nintedanib 60 mg/kg oral) did it give?
A: −0.45% and 0.58% and 8.79% and 0.44% and −2.94% and 2.46% and 4.14% and 1.78% and 4.49%

Q: And the Lung weight ([4]; nintedanib 60 mg/kg oral)?
A: 0.96 and 0.99 (2×) and 1.04 and 0.95 and 1.01 and 0.98 and 1.16 and 0.89

Q: And the Skin thickness ([6]; nintedanib 60 mg/kg oral)?
A: 675.558 μm and 623.019 μm and 651.831 μm and 660.809 μm and 649.479 μm and 620.302 μm and 651.572 μm and 856.355 μm and 664.973 μm

Q: And the “hydroxyproline value, ratio compared to a normal group” value ([7]; nintedanib 60 mg/kg oral)?
A: 1.34 and 1.83 and 1.63 and 1.53 and 1.08 and 1.37 and 1.43 and 1.65 and 1.45
